Source: US6174909A, “4-aminotetrahydrobenzisoxazole or -isothiazole compounds” (H. Lundbeck A/S, priority 1995, dated 2001)
Counter-ions that a name gives are not always drawn.

What was measured:
[1] = test system: GABA uptake in synaptosomes; assay: GABA uptake inhibition in synaptosomes (overall, i.e. neuronal and glial); format: biochemical; conditions: values marked * = Preliminary Data
Method: The inhibition of GABA Uptake was performed by the method described by Falch et. al, Drug Dev. Res., 1990,21, 169-188. By this method the overall, i.e. neuronal and glial, inhibition of GABA uptake is determined.

[2] = test system: isoniazide induced convulsions in mice; assay: Isoniazid antagonism (antagonism of isoniazide induced convulsions in mice); format: in vivo, mice (male NMRI/BOM); conditions: Mus musculus, sc, 30 min before 300 mg isoniazide s.c., protected = no convulsions within 60 min, log probit analysis
Method: The test is a test for antagonism of isoniazide induced convulsions in mice.
The test substance is given s.c. to mice (male NMRI/BOM, body weight 20-25 g) and 30 min later 300 mg isoniazide is given s.c. Five mice are used per dose and a control group only receiving isoniazide is included. This dose of isoniazide induces intermittent tonic seizures.
The animals are placed individually in Macrolon type II cages and the time when convulsions first occur is recorded. The experiment is stopped after 90 min. The animals that have not had convulsions within 60 min. are recorded as + (protected). The results, i.e. the number of protected mice pr number of tested mice are stated in fractions as follows: 0/5, 1/5 . . . , 5/5.

SMILES	IC50 [1]	ED50 [2]	IC50 ([1]; hydrobromide)
CNC1CCCc2onc(O)c21 (racemic) [Compound 8a, (R,S)-3-Hydroxy-4-methylamino-4,5,6,7-tetrahydro-1,2-benzisoxazole, hydrobromide]	65 µM	> 320 µmol/kg	
Oc1noc2c1C(NCCCC(c1ccc(F)cc1)c1ccc(F)cc1)CCC2 (racemic) [Compound 8b, (R,S)-4-[4,4-Bis(4-fluorophenyl)butan-1-ylamino]-3-hydroxy-4,5,6,7-tetrahydro-1,2-benzisoxazole, hydrobromide]	0.24 µM	110 µmol/kg	
CC(=O)OCCNC1CCCc2onc(O)c21 (racemic) [Compound 8c, (R,S)-4-(2-Acetyloxyethylamino)-3-hydroxy-4,5,6,7-tetrahydro-1,2-benzisoxazole, hydrobromide]	120 µM	> 120 µmol/kg	
Oc1noc2c1C(N1CCCC1)CCC2 (racemic) [Compound 8d, (R,S)-3-Hydroxy-4-(1-pyrrolidinyl)-4,5,6,7-tetrahydro-1,2-benzisoxazole, hydrobromide]	210 µM	> 140 µmol/kg	
CCNC1CCCc2onc(O)c21 (racemic) [Compound 8e, (R,S)-4-Ethylamino-3-hydroxy-4,5,6,7-tetrahydro-1,2-benzisoxazole, hydrobromide]	100 µM	> 300 µmol/kg	
C=CCNC1CCCc2onc(O)c21 (racemic) [Compound 8f, (R,S)-4-(2-propen-1-ylamino)-3-hydroxy-4,5,6,7-tetrahydro-1,2-benzisoxazole, oxalate]	100 µM	320 µmol/kg	
Oc1noc2c1C(NCCCC(c1ccccc1)c1ccccc1)CCC2 (racemic) [Compound 8g, (R,S)-4-(4,4-diphenylbutan-1-ylamino]-3-hydroxy-4,5,6,7-tetrahydro-1,2-benzisoxazole, hydrobromide]	0.17 µM	56 µmol/kg	
Oc1noc2c1C(NCCCCc1ccccc1)CCC2 (racemic) [Compound 8h, (R,S)-4-(4-phenylbut-1-ylamino]-3-hydroxy-4,5,6,7-tetrahydro-1,2-benzisoxazole, hydrobromide]	4.8 µM	150 µmol/kg	
Oc1noc2c1C(NCCC(c1ccccc1)c1ccccc1)CCC2 (racemic) [Compound 8i, (R,S)-4-(3,3-diphenylpropan-1-ylamind]-3-hydroxy-4,5,6,7-tetrahydro-1,2-benzisoxazole, hydrobromide]	0.14 µM	310 µmol/kg	
Oc1noc2c1C(NCCC=C1c3ccccc3CCc3ccccc31)CCC2 (racemic) [Compound 8j, (R,S)-4-[N-[3-(10,11-dihydrodibenzo[a,d]cyclohept-5-ylidene)propane-1-yl]amino]-3-hydroxy-4,5,6,7-tetrahydro-1,2-benzisoxazole, hydrobromide]	1.1 µM		
CN(CCC=C1c2ccccc2CCc2ccccc21)C1CCCc2onc(O)c21 (racemic) [Compound 8k, (R,S)-4-[N-[3-(10,11 1-ihydrodibenzo[a,d]cyclohept-5-ylidene)propane-1-yl]methylamino]-3-hydroxy-4,5,6,7-tetrahydro-1,2-benzisoxazole, hydrobromide]		68 µmol/kg	
Oc1noc2c1C(NCCCN1c3ccccc3Sc3ccccc31)CCC2 (racemic) [Compound 8l, (R,S)-4-[N-3-(Phenothiazin-10-yl)propane-1-yl]amino]-3-hydroxy4,5,6,7-tetrahydro-1,2-benzisoxazole, hydrobromide]		71 µmol/kg	
Cc1ccccc1C(CCCN(C)C1CCCc2onc(O)c21)c1ccccc1C (racemic) [Compound 8m, (R,S)-4-[N-[4,4-Di-(2-tolyl)butan-1-yl]-rmethylamino]-3-hydroxy-4,5,6,7-tetrahydro-1,2-benzisoxazole, hydrobromide]		27 µmol/kg	
Cc1ccccc1C(CCCNC1CCCc2onc(O)c21)c1ccccc1C (racemic) [Compound 8n, (R,S)-4-[N-[4,4-Di-(2-tolyl)butan-1-yl]amino]-3-hydroxy-4,5,6,7-tetrahydro-1,2-benzisoxazole, hydrobromide]		44 µmol/kg	
Cc1ccccc1C(=CCCN(C)C1CCCc2onc(O)c21)c1ccccc1C (racemic) [Compound 8o, (R,S)-4-[N-[1,1-Di-(2-tolyl)but-1-en-4-yl]methylamino]-3-hydroxy-4,5,6,7-tetrahydro-1,2-benzisoxazole]		50 µmol/kg	
Cc1ccccc1C(=CCCNC1CCCc2onc(O)c21)c1ccccc1C (racemic) [Compound 8p, (R,S) -4-[N-1,1-Di-(2-tolyl)but-1-en-4-yl]amino]-3-hydroxy-4,5,6,7-tetrahydro-1,2-benzisoxazole, hydrobromide]		30 µmol/kg	
OCCNC1CCCc2onc(O)c21 (racemic) [Compound 9a, (R,S)-4-(2-Hydroxyethylamino)-3-hydroxy-4,5,6,7-tetrahydro-1,2-benzisoxazole, hydrobromide]	180 µM	> 140 µmol/kg	
CN(CCCC(c1ccc(F)cc1)c1ccc(F)cc1)C1CCCc2onc(O)c21 (racemic) [Compound 11a, (R,S)-^4-[N-[4,4-Bis(4-fluorophenyl)butan-1-yi]-N-methylamino]-3-hydroxy-4,5,6,7-tetrahydro-1,2-benzisoxazole, hydrobromide]	0.73 µM	67 µmol/kg	

SMILES	IC50 [1]	ED50 [2]	IC50 ([1]; hydrobromide)
CN(CCCC(c1ccccc1)c1ccccc1)C1CCCc2onc(O)c21 (racemic) [Compound 11b, (R,S)-4-[-N -(4,4-Diphenylbut-1-yl)-N-methylamino]-3-hydroxy-4,5,6,7-tetrahydro-1,2-benzisoxazole, hydrobromide]	0.41 µM	640 µmol/kg	
CNC1CCCc2onc(OCOC(=O)C(C)(C)C)c21 (racemic) [Compound 14a, (R,S)-4-methylamino-3-pivaloyloxymethyloxy-4,5,6,7-tetrahydro-1,2-benzisoxazole, hemioxalate]	> 300 µM	86 µmol/kg	
CNC1CCCc2on(COC(=O)C(C)(C)C)c(=O)c21 (racemic) [Compound 14b, (R,S)-4-methylamino-2-pivaloyloxym ethyl-4,5,6,7-tetrahydro-1,2-benz isoxazol-3-one, hemioxalate]	> 300 µM	220 µmol/kg	
CNC1CCCc2on(C(=O)Nc3ccccc3)c(=O)c21 (racemic) [Compound 15a, (R,S)-4-methylamino-2-phenylaminocarbonyl4,5,6,7-tetrahydro-1,2benzisoxazol-3-one, hydrochloride]	70 µM	> 120 µmol/kg	
CNC(=O)n1oc2c(c1=O)C(NC)CCC2 (racemic) [Compound 15b]	80 µM	72 µmol/kg	
CNC1CCCc2on(C(=O)NCc3ccccc3)c(=O)c21 (racemic) [Compound 15c]	84 µM	> 120 µmol/kg	
CN(CCOC(c1ccc(F)cc1)c1ccc(F)cc1)C1CCCc2onc(O)c21 (racemic) [Compound 16a, (R,S)-4-[N-[bis(4-fluorophenyl)methyl-2-oxyethyl]-N-methylamino]-3-hydroxy-4,5,6,7-tetrahydro-1,2-benzisoxazole, sodium salt]	4.5 µM	55 µmol/kg	
CN(C)C1CCCc2onc(O)c21 (racemic) [Compound 18a, (R,S)-4-Dimethylamino-3-hydroxy-4,5,6,7-tetrahydro-1,2-benzisoxazole, hydrobromide]	280 µM		
Oc1noc2c1C(NCCC=C(c1ccccc1)c1ccccc1)CCC2 (racemic) [Compound 20b, (R,S)-3-Hydroxy-4-[N-(4,4-diphenyl-3-butenyl)amino]-4,5,6,7-tetrahydro-1,2-benzioxazole hydrochloride hydrate]	0.14 µM		
Cc1ccsc1C(=CCCNC1CCCc2onc(O)c21)c1sccc1C (racemic) [Compound 20c, (R,S)-3-Hydroxy-4-[N-(4,4-bis[3-methylthien-2-yl]-3-butenyl)amino]-4,5,6,7-tetrahydro-1,2-benzisoxazole hydrochloride]	0.17 µM		
NC1CCCc2snc(O)c21 (racemic) [Compound 26a, (R,S)-4-Amino-3-hydroxy-4,5,6,7-tetrahydro-1,2-benzisothiazole, hydrobromide]	> 300 µM		
CN(C(=O)Oc1ccccc1)C1CCCc2onc(O)c21 (racemic) [Compound 28a, (R,S)-3-Hydroxy-N-methyl-N-(4-phenyloxycarbonyl)amino-4,5,6,7-tetrahydro-1,2-benzisoxazole]		200 µmol/kg	
CNC1CCCc2onc(OCOC(=O)c3ccccc3)c21 (racemic) [Compound 31a, (R,S)-3-Benzoyloxymethyloxy-4-methylamino-4,5,6,7-tetrahydro-1,2-benzisoxazole, hemioxalate]		210 µmol/kg	
CNC1CCCc2onc(OCOC(=O)c3c(F)cccc3F)c21 (racemic) [Compound 31c, (R,S)-4-Methylamino-3-(2,6-difluorobenzoyloxymethyloxy)-4,5,6,7-tetrahydro-1,2-benzisoxazole, hemioxalate]		210 µmol/kg	
CNC1CCCc2onc(O)c21 (single isomer, unassigned; (-)) [Compound 6d, (-)-3-hydroxy-4-methylamino-4,5,6,7-tetrahydro-1,2-benzisoxazole, hydrobromide]			> 300 µM
N[C@H]1CCCc2onc(O)c21 [Compound 6a, (+)-4-amino-3-hydroxy-4,5,6,7-tetrahydro-1,2-benzisoxazole, hydrochloride]	> 300 µM		
N[C@@H]1CCCc2onc(O)c21 [Compound 6b, (-)-(R)-4-amino-3-hydroxy-4,5,6,7-tetrahydro-1,2-benzisoxazole, hydrochloride]	120 µM		
